Assay results: the NIST ThermoML archive (doi:10.1016/j.jct.2006.01.016)
Numbers after ± are expanded uncertainties.

Assays:
[1] = xn = mol fraction of the nth substance listed; conditions: 101 kPa, Liquid
[2] = 101 kPa, Liquid

CCCCn1cc[n+](C)c1.F[B-](F)(F)F [1-butyl-3-methylimidazolium tetrafluoroborate] + CO
[1]
Conditions | mass density, 298.15 K [kg/m3] | mass density, 303.15 K [kg/m3] | mass density, 308.15 K [kg/m3] | mass density, 313.15 K [kg/m3] | mass density, 318.15 K [kg/m3] | speed of sound, 298.15 K [m/s] | speed of sound, 303.15 K [m/s] | speed of sound, 308.15 K [m/s] | speed of sound, 313.15 K [m/s] | speed of sound, 318.15 K [m/s]
x1 = 0.0086 | 805.151 ± 2.2 | 800.482 ± 2.3 | 795.796 ± 2.3 | 791.081 ± 2.3 | 786.347 ± 2.4 | – | 1105.3 ± 9.3 | 1089.3 ± 9.2 | 1073.5 ± 9.1 | 1057.8 ± 9
x1 = 0.0473 | 871.093 ± 1.7 | 866.582 ± 1.7 | 862.063 ± 1.8 | 857.529 ± 1.8 | 852.979 ± 1.8 | – | 1162.4 ± 9.7 | 1147.8 ± 9.6 | 1133.1 ± 9.5 | 1118.6 ± 9.4
x1 = 0.0989 | 935.734 ± 1.2 | 931.386 ± 1.2 | 927.032 ± 1.3 | 922.668 ± 1.3 | 918.304 ± 1.3 | – | 1224.6 ± 10 | 1211 ± 10 | 1197.5 ± 9.9 | 1184 ± 9.8
x1 = 0.2027 | 1020.75 ± 0.88 | 1016.6 ± 0.84 | 1012.46 ± 0.81 | 1008.33 ± 0.78 | 1004.19 ± 0.76 | – | 1321.8 ± 11 | 1309.2 ± 11 | 1296.5 ± 11 | 1284 ± 10
x1 = 0.3516 | 1090.69 ± 1.6 | 1086.81 ± 1.5 | 1082.62 ± 1.5 | 1079.1 ± 1.5 | 1075.21 ± 1.4 | 1423.6 ± 11 | 1411.3 ± 11 | 1399.1 ± 11 | – | 1375 ± 11
x1 = 0.4958 | 1131.97 ± 2.1 | 1128.15 ± 2 | 1124.35 ± 2 | 1120.99 ± 2 | 1117.11 ± 1.9 | 1477 ± 12 | 1465 ± 12 | 1453.1 ± 12 | 1441.8 ± 11 | 1430.1 ± 11
x1 = 0.6961 | 1168.33 ± 2.7 | 1164.63 ± 2.7 | 1160.96 ± 2.6 | 1157.3 ± 2.6 | 1153.66 ± 2.6 | 1524.1 ± 12 | 1512.2 ± 12 | 1500.4 ± 12 | 1488.8 ± 12 | 1477.2 ± 12
x1 = 0.7982 | 1181.54 ± 3 | 1177.91 ± 3 | 1174.28 ± 3 | 1170.67 ± 2.9 | 1167.07 ± 2.9 | 1541.2 ± 12 | 1529.5 ± 12 | 1517.9 ± 12 | 1506.3 ± 12 | 1494.8 ± 12
x1 = 1 | 1201.42 ± 3.8 | 1197.88 ± 3.7 | 1194.35 ± 3.7 | 1190.82 ± 3.7 | 1187.29 ± 3.6 | 1576 ± 12 | 1555.5 ± 12 | 1543.9 ± 12 | 1532.5 ± 12 | 1521.2 ± 12

CCCCn1cc[n+](C)c1.F[B-](F)(F)F [1-butyl-3-methylimidazolium tetrafluoroborate] + CC#N
[1]
Conditions | mass density, 298.15 K [kg/m3] | mass density, 303.15 K [kg/m3] | mass density, 308.15 K [kg/m3] | mass density, 313.15 K [kg/m3] | mass density, 318.15 K [kg/m3] | speed of sound, 298.15 K [m/s] | speed of sound, 303.15 K [m/s] | speed of sound, 308.15 K [m/s] | speed of sound, 313.15 K [m/s] | speed of sound, 318.15 K [m/s]
x1 = 0.0103 | 794.416 ± 2.3 | 789.093 ± 2.3 | 783.745 ± 2.4 | 778.368 ± 2.4 | 772.971 ± 2.5 | 1289.2 ± 10 | 1269.3 ± 10 | 1249.6 ± 10 | 1230 ± 10 | 1210.3 ± 10
x1 = 0.0442 | 845.059 ± 1.9 | 839.982 ± 1.9 | 834.883 ± 2 | 829.765 ± 2 | 824.63 ± 2.1 | 1315.7 ± 11 | 1297 ± 11 | 1278.2 ± 10 | 1259.5 ± 10 | 1240.8 ± 10
x1 = 0.1032 | 913.689 ± 1.4 | 908.908 ± 1.4 | 904.123 ± 1.4 | 899.327 ± 1.5 | 894.531 ± 1.5 | 1354.8 ± 11 | 1337.2 ± 11 | 1319.7 ± 11 | 1302.3 ± 11 | 1284.9 ± 10
x1 = 0.2015 | 994.016 ± 0.76 | 989.579 ± 0.8 | 985.147 ± 0.83 | 980.715 ± 0.86 | 976.287 ± 0.91 | 1407.7 ± 11 | 1391.8 ± 11 | 1375.8 ± 11 | 1359.6 ± 11 | 1344.1 ± 11
x1 = 0.2931 | 1045.58 ± 1.1 | 1041.36 ± 1.1 | 1037.15 ± 1.1 | 1032.94 ± 1 | 1028.74 ± 1 | 1445.2 ± 11 | 1430.2 ± 11 | 1415.2 ± 11 | 1400.5 ± 11 | 1385.8 ± 11
x1 = 0.3935 | 1086.98 ± 1.6 | 1082.93 ± 1.5 | 1078.89 ± 1.5 | 1074.86 ± 1.5 | 1070.84 ± 1.4 | 1476.8 ± 12 | 1462.7 ± 12 | 1448.6 ± 11 | 1434.6 ± 11 | 1420.8 ± 11
x1 = 0.5352 | 1128.52 ± 2.1 | 1124.64 ± 2.1 | 1120.78 ± 2 | 1116.92 ± 2 | 1113.08 ± 2 | 1509.2 ± 12 | 1495.9 ± 12 | 1482.6 ± 12 | 1469.7 ± 12 | 1456.9 ± 12
x1 = 0.7043 | 1162.31 ± 2.7 | 1158.57 ± 2.6 | 1154.85 ± 2.6 | 1151.13 ± 2.6 | 1147.43 ± 2.5 | 1535.9 ± 12 | – | 1511.1 ± 12 | 1498.8 ± 12 | 1486.6 ± 12
x1 = 1 | 1201.42 ± 3.8 | 1197.88 ± 3.7 | 1194.35 ± 3.7 | 1190.82 ± 3.7 | 1187.29 ± 3.6 | 1576 ± 12 | 1555.5 ± 12 | 1543.9 ± 12 | 1532.5 ± 12 | 1521.2 ± 12

CCCCn1cc[n+](C)c1.F[B-](F)(F)F [1-butyl-3-methylimidazolium tetrafluoroborate]
[2]
Conditions | mass density [kg/m3] | speed of sound [m/s]
298.15 K | 1201.42 ± 3.8 | 1576 ± 12
303.15 K | 1197.88 ± 3.7 | 1555.5 ± 12
308.15 K | 1194.35 ± 3.7 | 1543.9 ± 12
313.15 K | 1190.82 ± 3.7 | 1532.5 ± 12
318.15 K | 1187.29 ± 3.6 | 1521.2 ± 12

CC#N [acetonitrile]
[2]
Conditions | mass density [kg/m3] | speed of sound [m/s]
298.15 K | 776.533 ± 2.4 | 1278.6 ± 10
303.15 K | 771.116 ± 2.5 | 1258.7 ± 10
308.15 K | 765.66 ± 2.5 | 1238.7 ± 10
313.15 K | 760.162 ± 2.6 | 1218.5 ± 10
318.15 K | 754.462 ± 2.6 | 1198.3 ± 9.9

CO [methanol]
[2]
Conditions | mass density [kg/m3] | speed of sound [m/s]
298.15 K | 786.531 ± 2.4 | –
303.15 K | 781.808 ± 2.4 | 1086.4 ± 9.2
308.15 K | 777.066 ± 2.4 | 1070.1 ± 9.1
313.15 K | 772.283 ± 2.5 | 1054 ± 9
318.15 K | 767.474 ± 2.5 | 1037.9 ± 8.9

CO [methanol] + CCCCn1cc[n+](C)c1.F[B-](F)(F)F
[1], x2 = 0
Conditions | mass density [kg/m3] | speed of sound [m/s]
298.15 K | 786.531 ± 2.4 | –
303.15 K | 781.808 ± 2.4 | 1086.4 ± 9.2
308.15 K | 777.066 ± 2.4 | 1070.1 ± 9.1
313.15 K | 772.283 ± 2.5 | 1054 ± 9
318.15 K | 767.474 ± 2.5 | 1037.9 ± 8.9

CC#N [acetonitrile] + CCCCn1cc[n+](C)c1.F[B-](F)(F)F
[1], x2 = 0
Conditions | mass density [kg/m3] | speed of sound [m/s]
298.15 K | 776.533 ± 2.4 | 1278.6 ± 10
303.15 K | 771.116 ± 2.5 | 1258.7 ± 10
308.15 K | 765.66 ± 2.5 | 1238.7 ± 10
313.15 K | 760.162 ± 2.6 | 1218.5 ± 10
318.15 K | 754.462 ± 2.6 | 1198.3 ± 9.9
